Laboratory results published in US7101878B1 (Agouron Pharmaceuticals, Inc., priority 1998, dated 2006).
pIC50, pKi: −log10 of the molar value. Read-outs that look alike come from different tables or passages of the source. Where a SMILES comes first, the peptide text is derived from it. [ ]: non-standard residue; d: D form. The star is where a group is joined. dPhe(4-Cl) = N[C@H](Cc1ccc(Cl)cc1)C(=O)O; d2Nal = N[C@H](Cc1ccc2ccccc2c1)C(=O)O; Lys(iPr) = CC(C)NCCCC[C@H](N)C(=O)O; d3Pal = N[C@H](Cc1cccnc1)C(=O)O; Nicotinoyl = O=C(c1cccnc1)*

Key:
rat GnRH receptor = target: T1, rat GnRH receptor (Rattus norvegicus, UniProt P30969); assay: Microphysiometry, extracellular acidification rate, GGH3 cells; assay type: cell-based
T1 sequence (P30969 1-327): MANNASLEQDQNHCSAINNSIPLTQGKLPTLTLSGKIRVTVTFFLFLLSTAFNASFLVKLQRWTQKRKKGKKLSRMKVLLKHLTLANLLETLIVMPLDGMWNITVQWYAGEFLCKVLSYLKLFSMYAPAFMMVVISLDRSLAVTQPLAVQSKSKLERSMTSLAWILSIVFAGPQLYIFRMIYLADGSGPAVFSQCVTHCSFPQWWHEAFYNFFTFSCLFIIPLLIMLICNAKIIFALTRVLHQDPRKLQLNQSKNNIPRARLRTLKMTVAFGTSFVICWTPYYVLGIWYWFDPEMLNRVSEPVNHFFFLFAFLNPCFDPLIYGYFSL
Procedure: These cells have been extensively characterized previously (Kaiser et al., 1997). These cells were grown in low glucose Dulbecco's modified Eagle's medium (DMEM) containing: 100U/mL penicillin/streptomycin, 0.6 g/L G418 and 10% beat-inactivated fetal bovine serum
(§1) This cell line was provided by Dr. Stuart Sealfon, Mount Sinai Medical School New York, N.Y. These cells were grown in DMEM supplemented with 0.2 g/L G418 100 U/ml penicillin/streptomycin and 10% FBS. Both GGH3 and hGnRH-R/293 cells were utilized for both for both total inositol phosphate measurement and for microphysiometry assessment of compound efficacy.
The Cytosensor®Microphysiometer (Molecular Devices, Sunnyvale, Calif.) is a real-time, noninvasive, nonradioactive semiconductor-based system for monitoring the cellular responses to various stimuli. It is based on a pH-sensitive silicon sensor, the light-addressable potentiometric sensor which forms part of a microvolume flow chamber in which cultured cells are immobilized (Pitchford et al., 1995; Parce et al., 1989; Owicki, et al. 1994).
GGH3 cells were seeded in low-buffered minimal essential media (MEM, Sigma) containing 25 mM NaCl and 0.1% BSA at a density of 500,000 cells/capsule onto the polycarbonate membrane (3 μm porosity) of cell capsule cups (Molecular Devices, Sunnyvale, Calif.). Capsule cups were transferred to sensor chambers where cells were held in close apposition to a silicon sensor within a sensor chamber, which measures small changes in pH in the microvolume of the sensor chamber. Low-buffered medium was pumped continuously across the cells at a rate of approximately 100 μl/min from one of two fluid reservoirs. A selection valve determined which reservoir from which fluid was perifused onto the cells.
The Cytosensor®Microphysiometer generates a voltage signal, which is a linear function of pH, every second. In order to measure acidification rates, flow to the sensor chamber containing the cells was periodically interrupted, allowing for excreted acidic metabolites to build up in the extracellular fluid of the cells. In these experiments, cells were maintained at 37° C. on a two minute flow cycle with cells being perfused with media for 80 seconds followed by 40 seconds in which the flow of media was stopped. During this 40 second interval, acidification rates were measured for a 30 sec interval. In this fashion, a single acidification rate was calculated every two min. The Cytosensor®Microphysiometer device contains eight such sensor units, allowing for eight simultaneous experiments to be performed. Each unit was individually programmed utilizing a computer linked to the system.
GGH3 cells were initially equilibrated in the low-buffered MEM media for a period of 30-60 min in which basal acidification rates (measured as μV/sec), in the absence of any stimuli, were monitored. When the basal rate of acidification changed by less than ten percent over a period of twenty minutes, experiments were initiated. Time course experiments were performed to determine the optimal time for agonist exposure prior to acidification rate measurement and the duration of exposure needed to obtain peak acidification responses to various agonists. From these time course experiments, it was determined that cells should be exposed to GnRH peptide agonists at least one minute prior to collection of acidification rate data. Peak acidification rates usually occurred in the first two-minute exposure cycle. In order to capture the peak response to GnRH, cells were exposed to the agonist for a total of four minutes. […] All compounds were tested in a final concentration of 1% DMSO in low-buffered MEM media described above.

hGnRH receptor = target: T2, hGnRH receptor (Homo sapiens, UniProt P30968); assay: Total inositol phosphates measurement, 293 cells containing the hGnRH receptor; assay type: cell-based; conditions: for GnRH functional: no species or readout annotated
T2 construct: expressed in transfected cells; host or cells: HEK 293 (hGnRH-R/293, from Dr. Stuart Sealfon)
T2 sequence (P30968 1-328): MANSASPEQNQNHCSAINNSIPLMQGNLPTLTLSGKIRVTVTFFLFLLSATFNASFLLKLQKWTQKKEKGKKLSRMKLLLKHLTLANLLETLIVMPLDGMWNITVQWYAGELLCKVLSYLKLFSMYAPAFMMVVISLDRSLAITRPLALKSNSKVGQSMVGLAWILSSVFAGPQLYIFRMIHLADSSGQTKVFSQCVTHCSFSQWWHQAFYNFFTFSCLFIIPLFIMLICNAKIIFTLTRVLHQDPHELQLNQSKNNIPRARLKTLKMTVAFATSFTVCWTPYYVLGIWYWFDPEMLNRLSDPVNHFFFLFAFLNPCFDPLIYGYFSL
Procedure: To assess the activity of the compounds as agonists or antagonists, an assay measuring accumulation of total inositol phosphates was employed. 293 cells containing the hGnRH receptor were plated onto 24-well plates (approximately 200,000 cells/well) using DMEM media. […] The medium was aspirated and the cells rinsed with serum-free DMEM. The medium was aspirated and the cells were then treated with test compounds or vehicle for 30 minutes at 37° C. […] The media was replaced with ice-cold 10 mM formic acid, which stopped the reaction and also served to extract cellular lipids. Inositol phosphates were separated by ion-exchange chromatography on Dowex columns, which were washed with 2.5 mL of 10 mM myoinositol and 10 mM formic acid. The columns were then washed with 5 mL of 60 mM sodium formate and […], and total inositol phosphates were eluted with 5 mL 1M ammonium formate, 0.1 M formic acid. The column eluates were added to liquid scintillation vials containing 15 ml of scintillation cocktail and were counted by liquid scintillation counting.
as §1

D2 Dopamine = D2 Dopamine (Homo sapiens, UniProt P14416); assay: Selectivity: D2 Dopamine
5-HT7 = 5-HT7 (Homo sapiens, UniProt P34969); assay: Selectivity: 5-HT7
Glucagon = Glucagon (Homo sapiens, UniProt P47871); assay: Selectivity: Glucagon
[1] = rat, readout (PI or pH) not stated

Glucagon, sequence (P47871 26-477): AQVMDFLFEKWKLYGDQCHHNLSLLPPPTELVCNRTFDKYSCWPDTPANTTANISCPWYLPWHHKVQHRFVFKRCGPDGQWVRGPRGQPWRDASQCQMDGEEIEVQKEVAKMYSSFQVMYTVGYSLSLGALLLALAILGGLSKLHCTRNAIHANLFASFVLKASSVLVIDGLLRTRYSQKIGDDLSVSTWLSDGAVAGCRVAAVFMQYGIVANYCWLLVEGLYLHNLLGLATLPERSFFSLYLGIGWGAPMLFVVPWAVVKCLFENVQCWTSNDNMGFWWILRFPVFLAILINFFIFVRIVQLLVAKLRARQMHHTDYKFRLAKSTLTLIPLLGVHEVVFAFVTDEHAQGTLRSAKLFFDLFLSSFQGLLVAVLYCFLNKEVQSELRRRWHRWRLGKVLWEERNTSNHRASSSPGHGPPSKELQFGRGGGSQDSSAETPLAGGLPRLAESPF
5-HT7, sequence (P34969 whole entry, species assumed): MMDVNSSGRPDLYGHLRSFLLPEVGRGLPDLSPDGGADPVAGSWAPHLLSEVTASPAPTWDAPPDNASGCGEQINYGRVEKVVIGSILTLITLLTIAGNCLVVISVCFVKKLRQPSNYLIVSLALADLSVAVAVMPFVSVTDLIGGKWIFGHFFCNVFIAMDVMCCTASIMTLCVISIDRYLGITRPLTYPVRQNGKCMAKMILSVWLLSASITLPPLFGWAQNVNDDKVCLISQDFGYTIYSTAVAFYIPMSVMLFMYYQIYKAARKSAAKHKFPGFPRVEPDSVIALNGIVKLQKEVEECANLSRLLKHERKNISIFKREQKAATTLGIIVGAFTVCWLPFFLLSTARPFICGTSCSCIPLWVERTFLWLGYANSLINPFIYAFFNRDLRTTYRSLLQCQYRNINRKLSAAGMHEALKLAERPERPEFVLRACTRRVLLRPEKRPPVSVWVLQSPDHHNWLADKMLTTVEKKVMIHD
D2 Dopamine, sequence (P14416 whole entry): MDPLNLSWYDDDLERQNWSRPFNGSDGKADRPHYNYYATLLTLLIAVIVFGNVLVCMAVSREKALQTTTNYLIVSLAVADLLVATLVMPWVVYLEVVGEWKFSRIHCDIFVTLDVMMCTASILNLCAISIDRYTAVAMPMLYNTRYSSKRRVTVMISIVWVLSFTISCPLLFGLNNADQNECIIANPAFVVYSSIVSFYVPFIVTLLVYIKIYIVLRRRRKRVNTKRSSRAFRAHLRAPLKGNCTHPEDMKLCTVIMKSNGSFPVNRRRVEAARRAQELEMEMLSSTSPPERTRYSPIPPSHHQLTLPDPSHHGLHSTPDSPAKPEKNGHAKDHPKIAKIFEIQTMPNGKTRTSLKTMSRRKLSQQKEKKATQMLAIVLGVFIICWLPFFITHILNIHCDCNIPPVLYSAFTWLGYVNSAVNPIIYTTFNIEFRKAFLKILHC

Row | SMILES | Kb (rat GnRH receptor; [1]) [nM] | GnRH functional (hGnRH receptor) | pKi (D2 Dopamine) | pKi (5-HT7) | pIC50 (Glucagon) | further results
1 | COc1cc(OC)c(NC(=O)c2ccc(Cc3cc4c(cc3OC)C(C)(C)CCC4(C)C)o2)c(OC)c1 [Compound 169] | 17 | Antag- onist | 5.47 | – | – | –
2 | COc1cccc(OC)c1NC(=O)c1ccc(Cc2cc3c(cc2C)C(C)(C)CCC3(C)C)o1 [Compound 20] | 9 | – | < 5.49 | < 5.36 | 5.17 | pKi (Glucagon): 5.17
3 | Cc1cc2c(cc1Cc1ccc(C(=O)NC[C@H]3CC[C@H](CNC(=N)N)CC3)o1)C(C)(C)CCC2(C)C [Compound 10] | – | – | – | 5.90 | 5.18 | Kb (hGnRH receptor): 95 nM
4 | Cc1cc2c(cc1Cc1ccc(C(=O)NC[C@H]3CC[C@H](C(=O)O)CC3)o1)C(C)(C)CCC2(C)C [Compound 12] | – | – | 5.85 | < 5.35 | 5.00 | Kb (hGnRH receptor): 170 nM
5 | Cc1cc2c(cc1Cc1ccc(C(=O)NCC3CCCC(CNc4nccc(NCC5CCCO5)n4)C3)o1)C(C)(C)CCC2(C)C (stereo not shown) [Compound 11] | – | – | 6.82 | 5.74 | 5.49 | –
6 | Cc1cnc(CNC(=O)c2ccc(Cc3cc4c(cc3C)C(C)(C)CCC4(C)C)o2)cn1 [Compound 13] | – | – | < 5.49 | < 5.36 | 5.10 | Kb (hGnRH receptor): 85 nM
7 | CC(=O)N[C@H](Cc1ccc2ccccc2c1)C(=O)N[C@H](Cc1ccc(Cl)cc1)C(=O)N[C@H](Cc1cccnc1)C(=O)N[C@@H](CO)C(=O)N[C@@H](CCCCNC(=O)c1cccnc1)C(=O)N[C@H](CCCCNC(=O)c1cccnc1)C(=O)N[C@@H](CC(C)C)C(=O)N[C@@H](CCCCNC(C)C)C(=O)N1CCC[C@H]1C(=O)N[C@H](C)C(N)=O [Antide, reference compound] (Ac-[d2Nal][dPhe(4-Cl)][d3Pal]SK(Nicotinoyl)[dK](Nicotinoyl)L[Lys(iPr)]P[dA]-NH2) | – | – | – | – | – | stimulation of total [3H]inositol phosphates by compound alone (hGnRH receptor; compound alone, no GnRH): Neither compound alone stimulated an increase; inhibition of GnRH-stimulated total inositol phosphate accumulation (hGnRH receptor; half-maximal concentration of GnRH (1 nM)): able to inhibit the stimulation
8 | COc1cc(OC)c(NC(=O)c2ccc(Cc3cc4c(cc3C)C(C)(C)CCC4(C)C)o2)c(OC)c1 [Compound 134] | – | Antag- onist | 5.62 | < 5.36 | – | Kb (rat GnRH receptor; rat, pH (microphysiometry)): 13 nM; Kb (hGnRH receptor; human, PI (inositol phosphates)): 13 nM

The next lines start with results.

Row | Kb (rat GnRH receptor; [1]) [nM] | GnRH functional (hGnRH receptor) | SMILES | pKi (D2 Dopamine) | pKi (5-HT7) | pIC50 (Glucagon) | further results
9 | 0.9 | Antag- onist | COc1cc(OC)c(NC(=O)c2ccc(Cc3cc(C(C)(C)C)ccc3C)o2)c(OC)c1 [Compound 200] | – | – | – | –
10 | 8 | – | Cc1cc2c(cc1Cc1ccc(C(=O)NCc3cccc(CNc4nccc(NCC5CCCO5)n4)c3)o1)C(C)(C)CCC2(C)C (stereo not shown) [Compound 70] | – | – | – | GnRH functional (rat) (rat GnRH receptor; [1]): Antag- onist (rat)
11 | – | Antag- onist | Cc1cc2c(cc1Cc1ccc(C(=O)NCc3cccc(CNc4ccnc(NC[C@@H]5CCCO5)n4)c3)o1)C(C)(C)CCC2(C)C [Compound 136] | 6.80 | 5.62 | – | effect on GnRH dose-response curves, extracellular acidification rate (rat GnRH receptor; GGH3 cells, one experiment): rightward shift in the dose-response curves to GnRH without decreasing the maximum response to GnRH; Kb (rat GnRH receptor; rat, pH (microphysiometry)): 8 nM
12 | 11 | Antag- onist | COc1cc(OC)c(NC(=O)c2ccc(Cc3cc4c(cc3C)CCCC4(C)C)o2)c(OC)c1 [Compound 183] | – | – | – | –
13 | 9 | Antag- onist | COc1cc(OC)c(NC(=O)c2ccc(Cc3cc4c(cc3C)C(C)(C)CCC4(C)C)o2)c(OC)c1C#N [Compound 177] | – | – | – | –
14 | – | Antag- onist | Cc1cc2c(cc1Cc1ccc(C(=O)NCc3nc4ccccc4[nH]3)o1)C(C)(C)CCC2(C)C [Compound 48] | < 5.49 | < 5.36 | 5.20 | –
